Active and inactive are the calls of the source. The rule behind the calls is not given here.

Broadly, the Kd is a measure of binding affinity in units of concentration.

Assay [1] deals with Mus musculus. The assay can be described thus: In vivo anti-necrotptic activity in mTNFalpha induced C57BL/6J SIRS mouse model assessed as reduction in serum IL-6 level pretreated at 5 to 20 mg/kg, po for 1 hr followed by mTNFalpha/Z-VAD-FMK administration measured after 3 hrs by ELISA analysis. Format: functional, organism-based. Particulars: dose 5-20 mg/kg, time 4.0 hrs. Background: An ELISA detects its analyte on a solid surface through an enzyme-linked reagent.

Assay [2] deals with Mus musculus. The assay can be described thus: In vivo anti-inflammatory activity in NNK induced induced C57BL/6J ALI mouse model assessed as decrease in wet lung weight pretreated at 25 to 100 mg/kg, ip for 1 hr followed by NNK administration relative to disease model. The following applies: dose 25-100 mg/kg. Format: functional, organism-based.
The target in assay [3] is T1, Receptor-interacting serine/threonine-protein kinase 1 (Homo sapiens) (UniProt Q13546).
T1 sequence (whole entry): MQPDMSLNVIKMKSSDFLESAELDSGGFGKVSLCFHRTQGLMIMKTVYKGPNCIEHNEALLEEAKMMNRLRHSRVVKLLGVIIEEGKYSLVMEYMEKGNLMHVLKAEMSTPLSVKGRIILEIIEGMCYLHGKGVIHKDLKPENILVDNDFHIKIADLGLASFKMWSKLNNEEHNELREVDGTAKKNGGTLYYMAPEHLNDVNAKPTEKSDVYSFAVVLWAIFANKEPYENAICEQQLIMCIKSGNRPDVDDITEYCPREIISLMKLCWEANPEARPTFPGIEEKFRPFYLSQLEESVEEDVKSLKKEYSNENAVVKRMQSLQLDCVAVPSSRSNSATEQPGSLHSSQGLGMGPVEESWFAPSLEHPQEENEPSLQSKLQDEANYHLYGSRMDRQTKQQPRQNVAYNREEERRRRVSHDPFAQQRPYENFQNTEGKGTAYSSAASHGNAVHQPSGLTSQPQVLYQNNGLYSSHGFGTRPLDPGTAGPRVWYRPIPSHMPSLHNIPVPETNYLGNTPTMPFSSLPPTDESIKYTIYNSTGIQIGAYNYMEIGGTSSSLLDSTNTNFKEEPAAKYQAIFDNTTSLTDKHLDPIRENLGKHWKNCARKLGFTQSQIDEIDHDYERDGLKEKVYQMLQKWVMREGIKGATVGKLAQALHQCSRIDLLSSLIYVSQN
The assay can be described thus: Inhibition of RIPK1 phosphorylation in TSZ-induced human HT-29 cells assessed as blocking of TSZ-induced necrosome formation at 1 uM pretreated with compound for 2 to 6 hrs followed by TSZ stimulation for 6 hrs measured by Western analysis. The following applies: time 8-12 hrs. The assay is classed as cell-based.

Assay [4] deals with Mus musculus. In words: In vivo anti-necrotptic activity in mTNFalpha induced C57BL/6J SIRS mouse model assessed as survival rate pretreated at 10 mg/kg, po for 1 hr followed by mTNFalpha/Z-VAD-FMK administration measured after 40 mins relative to control. The assay is classed as functional. The following applies: time 100 min, 1.667 h.
Assay [5] has as its system U-937. In words: Anti-necroptotic activity in human U-937 cells assessed as protection against human TNFalpha/Smac mimetic/Z-VAD-FMK induced necroptosis preincubated with compound upto 50 nM for 16 to 24 hrs followed by TSZ stimulation for 12 hrs measured by cell-titre glo luminescent cell viability assay. The assay is classed as functional, cell-based. The following applies: time 28-36 hrs.

For assay [6], the target named is T2, Receptor-interacting serine/threonine-protein kinase 1 (Homo sapiens, UniProt Q13546).
T2 sequence (Q13546 whole entry): T1 sequence (whole entry)
The assay can be described thus: Binding affinity to human wildtype full length RIPK1 (M1 to K305 residues) expressed in bacterial expression system assessed as dissociation constant by kinome scan kd select based qPCR analysis.

Assay [7] concerns Mus musculus. In words: In vivo anti-inflammatory activity in NNK induced induced C57BL/6J ALI mouse model assessed as lung injury score pretreated at 25 mg/kg, ip for 1 hr followed by NNK administration relative to disease model (reference value: 5.7 +/- 0.5). The assay is classed as functional.
In assay [8] the test system is Mus musculus. In words: In vivo anti-inflammatory activity in NNK induced induced C57BL/6J ALI mouse model assessed as decrease in bronchoalveolar lavage fluid (BALF) TNF-alpha level pretreated at 25 to 100 mg/kg, ip for 1 hr followed by NNK administration. Format: functional, organism-based. The following applies: dose 25-100 mg/kg.
Assay [9] relates to Mus musculus. In words: In vivo anti-inflammatory activity in NNK induced induced C57BL/6J ALI mouse model assessed as lung injury score pretreated at 50 mg/kg, ip for 1 hr followed by NNK administration relative to disease model (reference value: 5.7 +/- 0.5). The assay is classed as functional.
The test system of assay [10] is HT-29. In words: Anti-necroptotic activity in human HT-29 cells assessed as protection against human TNFalpha/cycloheximide/Z-VAD-FMK induced necroptosis preincubated with compound at 0.3 uM for 16 to 24 hrs followed by TCZ stimulation for 16 hrs measured by cell-titre glo luminescent cell viability assay relative to control. Format: functional. The following applies: time 32-40 hrs.

For assay [11], the system named is Mus musculus. The assay can be described thus: In vivo anti-necrotptic activity in mTNFalpha induced C57BL/6J SIRS mouse model assessed as survival rate pretreated at 5 mg/kg, po for 1 hr followed by mTNFalpha/Z-VAD-FMK administration measured after 40 mins relative to control. The assay is classed as functional. Particulars: time 100 min, 1.667 h.
In assay [12] the test system is HT-29. The assay can be described thus: Anti-necroptotic activity in human HT-29 cells assessed as protection against human TNFalpha/cycloheximide induced necroptosis preincubated with compound upto 10 uM for 16 to 24 hrs followed by TC stimulation for 24 hrs measured by cell-titre glo luminescent cell viability assay. Format: functional, cell-based. Particulars: time 40-48 hrs.

For assay [13], the system named is Mus musculus. The assay can be described thus: In vivo anti-necrotptic activity in mTNFalpha induced C57BL/6J SIRS mouse model assessed as reduction in serum IL-1beta level pretreated at 5 to 20 mg/kg, po for 1 hr followed by mTNFalpha/Z-VAD-FMK administration measured after 3 hrs by ELISA analysis. Format: functional, organism-based. Particulars: dose 5-20 mg/kg, time 4.0 hrs.

The subject of assay [14] is Mus musculus. The assay can be described thus: In vivo anti-inflammatory activity in NNK induced induced C57BL/6J ALI mouse model assessed as decrease in dry lung weight pretreated at 25 to 100 mg/kg, ip for 1 hr followed by NNK administration relative to disease model. Format: functional, organism-based. Particulars: dose 25-100 mg/kg.
Assay [15] has as its system Mus musculus. In words: In vivo anti-inflammatory activity in NNK induced induced C57BL/6J ALI mouse model assessed as intact alveolar structure in lung pretreated at 25 to 100 mg/kg, ip for 1 hr followed by NNK administration by HE staining analysis. The assay is classed as functional, organism-based. Particulars: dose 25-100 mg/kg.
In assay [16] the target is Receptor-interacting serine/threonine-protein kinase 3 (Homo sapiens, UniProt Q9Y572). In words: Inhibition of RIPK3 phosphorylation in TSZ-induced human HT-29 cells assessed as blocking of TSZ-induced necrosome formation at 1 uM pretreated with compound for 2 to 6 hrs followed by TSZ stimulation for 6 hrs measured by Western analysis. The assay is classed as cell-based. The following applies: time 8-12 hrs.
Sequence of Receptor-interacting serine/threonine-protein kinase 3 (Q9Y572 whole entry, looked up): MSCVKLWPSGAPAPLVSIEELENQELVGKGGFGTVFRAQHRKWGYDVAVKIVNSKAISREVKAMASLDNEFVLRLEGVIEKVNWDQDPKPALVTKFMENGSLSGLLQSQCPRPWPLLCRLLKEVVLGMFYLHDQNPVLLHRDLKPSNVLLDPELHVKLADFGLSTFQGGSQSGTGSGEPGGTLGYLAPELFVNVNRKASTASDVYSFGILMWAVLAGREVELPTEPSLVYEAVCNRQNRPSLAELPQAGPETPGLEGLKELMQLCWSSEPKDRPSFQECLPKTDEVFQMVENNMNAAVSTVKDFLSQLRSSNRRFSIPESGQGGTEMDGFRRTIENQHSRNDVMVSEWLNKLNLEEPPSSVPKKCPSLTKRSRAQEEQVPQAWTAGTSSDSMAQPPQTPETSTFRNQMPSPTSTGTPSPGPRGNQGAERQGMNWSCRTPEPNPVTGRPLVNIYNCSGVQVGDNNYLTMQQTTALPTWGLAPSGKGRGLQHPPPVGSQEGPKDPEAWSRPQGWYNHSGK

With `CCS(=O)(=O)NC1CCC(C(=O)Nc2nc3cc(F)c(Oc4ccc(F)c(NC(=O)Cc5cccc(C(F)(F)F)c5)c4)cc3s2)CC1` (stereo unspecified), the result in assay [1], in [2], in assay [8], in assay [13], in [14] and in [15] was Active. Further, the inhibition entry in [3] and in assay [16] was “Active” in each case. Besides, the Activity in [4] is listed as 90%; in assay [7], 4.3; in assay [9], 3.3; in assay [10] it was over 50%; in assay [11], 30%. In addition, the outcome in [5] and in assay [12] was inactive. In addition, the Kd in [6] is 85 nM.
